{
  "source": "paper PMC10937676",
  "about": "“Targeting the NTSR2/TrkB oncogenic pathway in chronic lymphocytic leukemia” (Scientific Reports, 2024)",
  "key": {"BCL-2 mRNA": {"tested_on": "BCL-2 mRNA", "assay": "RTqPCR, mRNA level of BCL-2 in CLL-B cells", "type": "cell-based, human", "details": "CLL-B cells from 12 patients, overnight, 10 µM, 18S housekeeping gene", "from_the_text": "(§1) Concerning anti-apoptotic protein expression, a decrease in anti-apoptotic proteins BCL-2; BCL-XL and MCL-1 was observed after TAT-Pep treatment of CLL-B cells, possibly as a consequence of the SRC kinase inactivation (Fig. 6A–C). To unveil whether the regulation mechanism behind the observed modifications was transcriptional or post-transcriptional, we evaluated the mRNA levels of all three anti-apoptotic proteins following peptide treatment. […] To further underline that the induction of cell death following TAT-Pep treatment involved apoptosis regulation pathways, we used B cells from six CLL patients and stained them with Annexin V in both TAT-Pep treated and untreated conditions. […]\n(§2) Figure 6 The peptide lowers anti-apoptotic proteins levels. […] CLL-B cells from 12 patients were incubated overnight, with or without 10 µM of TAT-Pep, subsequently RNA was extracted from cell lysates and mRNA levels of BCL-2 (D); BCL-XL (E) and MCL-1 (F) were evaluated using RTqPCR; 18S was used as a housekeeping gene. (G) Increased concentrations (0 to 30 µM) of TAT-Pep were incubated with 20,000 CLL-B, and the number of Annexin V-positive cells was measured using the Incucyte live-cell imaging device. Fluorescence was monitored for 48 h. […] The ‘Green Object Count/Phase Object Count’ ratio was determined using the Incucyte analysis software to obtain the percentage of apoptotic cells. […]"}, "NTSR2/TRKB interaction [1]": {"biological_target": "T1, NTSR2/TRKB interaction (Homo sapiens, UniProt Q16620)", "T1 sequence (Q16620 32-822)": "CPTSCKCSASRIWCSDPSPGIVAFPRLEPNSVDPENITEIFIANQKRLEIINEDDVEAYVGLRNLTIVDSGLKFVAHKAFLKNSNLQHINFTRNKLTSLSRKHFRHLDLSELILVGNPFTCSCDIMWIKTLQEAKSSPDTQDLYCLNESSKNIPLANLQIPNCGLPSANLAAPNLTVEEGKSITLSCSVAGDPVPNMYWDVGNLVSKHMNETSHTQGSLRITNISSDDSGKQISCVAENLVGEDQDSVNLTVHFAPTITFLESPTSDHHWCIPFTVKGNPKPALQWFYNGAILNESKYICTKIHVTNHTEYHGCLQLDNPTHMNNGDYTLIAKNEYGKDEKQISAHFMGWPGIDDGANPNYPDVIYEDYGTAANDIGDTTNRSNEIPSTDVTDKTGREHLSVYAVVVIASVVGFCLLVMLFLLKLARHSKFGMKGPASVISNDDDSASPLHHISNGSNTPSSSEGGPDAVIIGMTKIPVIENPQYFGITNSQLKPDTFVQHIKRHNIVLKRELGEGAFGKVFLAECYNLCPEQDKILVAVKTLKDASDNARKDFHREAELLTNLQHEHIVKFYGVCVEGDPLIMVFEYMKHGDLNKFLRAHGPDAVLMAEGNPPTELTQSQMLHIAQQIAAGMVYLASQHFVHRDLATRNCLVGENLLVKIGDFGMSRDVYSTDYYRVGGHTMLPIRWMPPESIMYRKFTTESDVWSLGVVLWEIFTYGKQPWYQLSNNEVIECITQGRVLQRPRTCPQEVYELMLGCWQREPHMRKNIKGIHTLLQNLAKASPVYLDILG", "assay": "Proximity ligation assay (PLA) for NTSR2 and TRKB in CLL-B cells", "type": "cell-based", "design": "endogenous in cells; host or cells: primary CLL-B cells from three CLL patients", "details": "CLL-B cells from three CLL patients, 10 µM overnight; compared with TAT alone or untreated; spots counted in 50 cells", "method": "(§3) Nuclei were stained with DAPI (blue). […] (C) Representative immunoblot of 3 independent experiments. […] Nuclei were stained with DAPI (blue). Magnification × 40.\nIn a second approach, we investigated the inhibition of the NTSR2/TRKB interaction in CLL-B cells from three CLL patients using PLA on NTSR2 and TRKB. The leukemic B cells were either treated with the TAT-Pep peptide, TAT alone, or left untreated, and then the proximity ligation assay was performed (Fig. 4E,F).\nCells were fixed with methanol at − 20 °C for 10 min and then the Duolink kit (Sigma) was used to perform the PLA according to the manufacturer’s instructions. Before observation, cells were mounted on glass slides with DAPI-containing mounting medium and results were observed by confocal microscopy (LSM880, Zeiss) and analyzed using the Fiji software (ImageJ)."}, "MCL-1": {"tested_on": "MCL-1", "assay": "Immunoblot, relative level of anti-apoptotic protein MCL-1 in CLL-B cells", "type": "cell-based, human", "details": "CLL-B cells from 10 patients, overnight, 10 µM", "from_the_text": "as §1, §2"}, "NTSR2/TRKB interaction [2]": {"biological_target": "T1, NTSR2/TRKB interaction", "assay": "NTSR2-AviTag pull-down, inhibition of the NTSR2/TRKB interaction in transfected HEK293T cells", "type": "cell-based", "design": "host or cells: HEK293T", "from_the_text": "as §3\nThe amount of co-immunoprecipitated TRKB protein was detected by immunoblot (Fig. 4C,D). […] This is associated to the low penetration of the peptide in the cells.\nVectors used were constructed by Vector Builder. The vector builder IDs are VB201022-1029qpx (BirA); VB201022-1027yza (TRKB-NTSR2) and VB201022-1012yjb (TRKB-NTSR2-AviTag™). 500 000 HEK293T cells were seeded and transfected the following day with 3 µg of plasmid using jetPEI (Polyplus Transfection). They were then treated with 40 µM biotin and with or without […] of BDNF (ABclonal).\nProteins were extracted using RIPA buffer (Sigma-Aldrich) and sonication (VibraCell™). They were then incubated with 30 μL of streptavidin-functionalized magnetic beads (Invitrogen) for 2 h at 4 °C under rotation. For western blot analysis, the magnetic beads were washed 4 times with cold PBS and the fixed proteins were eluted in 4 × Laemmli buffer supplemented with 10% β-mercaptoethanol and denatured at 95 °C for 5 min.\nWhole cell lysate proteins were extracted using RIPA buffer (Sigma-Aldrich) and sonication (VibraCell™). […] Bands were quantitatively assessed by densitometry using Fiji software. […]"}, "BCL-XL mRNA": {"tested_on": "BCL-XL mRNA", "assay": "RTqPCR, mRNA level of BCL-XL in CLL-B cells", "type": "cell-based, human", "details": "CLL-B cells from 12 patients, overnight, 10 µM, 18S housekeeping gene", "from_the_text": "as §1, §2"}, "BCL-2": {"tested_on": "BCL-2", "assay": "Immunoblot, relative level of anti-apoptotic protein BCL-2 in CLL-B cells", "type": "cell-based, human", "details": "CLL-B cells from 10 patients, overnight, 10 µM", "from_the_text": "as §1, §2"}},
  "data": [
    {"sequence": "GRKKRRQRRRPPQNAVSSSFRKLFLEAVSSLCGEHHPMKRLPPKPQSPTLMDTASGFGDPPETRT [TAT-Pep]", "values": [
      {"measurement": "mRNA level of BCL-2 (in words)", "setting": "BCL-2 mRNA", "result": "significantly lowered expression"},
      {"measurement": "PLA red fluorescence spots (proximity of NTSR2 and TRKB), in words", "setting": "NTSR2/TRKB interaction [1]", "result": "dramatically reduced"},
      {"measurement": "level of anti-apoptotic protein MCL-1 (in words)", "setting": "MCL-1", "result": "decrease"},
      {"measurement": "amount of co-immunoprecipitated TRKB protein (TRKB/NTSR2 ratio, in words)", "setting": "NTSR2/TRKB interaction [2]; transfected HEK293T cells incubated overnight with 10 µM peptide, streptavidin pull-down, immunoblot densitometry, 3 independent experiments", "result": "significant decrease"},
      {"measurement": "effect of BDNF addition on the inhibited NTSR2/TRKB interaction (in words)", "setting": "NTSR2/TRKB interaction [2]; transfected HEK293T cells, 10 µM peptide overnight, BDNF in the culture medium", "result": "did not restore the interaction"},
      {"measurement": "mRNA level of BCL-XL (in words)", "setting": "BCL-XL mRNA", "result": "significantly lowered expression"},
      {"measurement": "level of anti-apoptotic protein BCL-2 (in words)", "setting": "BCL-2", "result": "decrease"}
    ]}
  ]
}
